Assay [1] addresses T1, type 1 ryanodine receptor (RyR1) (Mus musculus, UniProt E9PZQ0).
T1 construct: recombinant WT RyR1 on HEK293 ER microsomes (also endogenous RyR1 from mouse skeletal muscle)
Kind of assay: [3H]simvastatin radioligand binding; single-channel recordings show activation.

In the next assay the target is T2, RyR1 BSM1 mutant (Mus musculus, UniProt E9PZQ0, W4792A).
T2 construct: recombinant RyR1 on HEK293 ER microsomes
Kind of assay: [3H]simvastatin radioligand binding.

T1 sequence (E9PZQ0 whole entry): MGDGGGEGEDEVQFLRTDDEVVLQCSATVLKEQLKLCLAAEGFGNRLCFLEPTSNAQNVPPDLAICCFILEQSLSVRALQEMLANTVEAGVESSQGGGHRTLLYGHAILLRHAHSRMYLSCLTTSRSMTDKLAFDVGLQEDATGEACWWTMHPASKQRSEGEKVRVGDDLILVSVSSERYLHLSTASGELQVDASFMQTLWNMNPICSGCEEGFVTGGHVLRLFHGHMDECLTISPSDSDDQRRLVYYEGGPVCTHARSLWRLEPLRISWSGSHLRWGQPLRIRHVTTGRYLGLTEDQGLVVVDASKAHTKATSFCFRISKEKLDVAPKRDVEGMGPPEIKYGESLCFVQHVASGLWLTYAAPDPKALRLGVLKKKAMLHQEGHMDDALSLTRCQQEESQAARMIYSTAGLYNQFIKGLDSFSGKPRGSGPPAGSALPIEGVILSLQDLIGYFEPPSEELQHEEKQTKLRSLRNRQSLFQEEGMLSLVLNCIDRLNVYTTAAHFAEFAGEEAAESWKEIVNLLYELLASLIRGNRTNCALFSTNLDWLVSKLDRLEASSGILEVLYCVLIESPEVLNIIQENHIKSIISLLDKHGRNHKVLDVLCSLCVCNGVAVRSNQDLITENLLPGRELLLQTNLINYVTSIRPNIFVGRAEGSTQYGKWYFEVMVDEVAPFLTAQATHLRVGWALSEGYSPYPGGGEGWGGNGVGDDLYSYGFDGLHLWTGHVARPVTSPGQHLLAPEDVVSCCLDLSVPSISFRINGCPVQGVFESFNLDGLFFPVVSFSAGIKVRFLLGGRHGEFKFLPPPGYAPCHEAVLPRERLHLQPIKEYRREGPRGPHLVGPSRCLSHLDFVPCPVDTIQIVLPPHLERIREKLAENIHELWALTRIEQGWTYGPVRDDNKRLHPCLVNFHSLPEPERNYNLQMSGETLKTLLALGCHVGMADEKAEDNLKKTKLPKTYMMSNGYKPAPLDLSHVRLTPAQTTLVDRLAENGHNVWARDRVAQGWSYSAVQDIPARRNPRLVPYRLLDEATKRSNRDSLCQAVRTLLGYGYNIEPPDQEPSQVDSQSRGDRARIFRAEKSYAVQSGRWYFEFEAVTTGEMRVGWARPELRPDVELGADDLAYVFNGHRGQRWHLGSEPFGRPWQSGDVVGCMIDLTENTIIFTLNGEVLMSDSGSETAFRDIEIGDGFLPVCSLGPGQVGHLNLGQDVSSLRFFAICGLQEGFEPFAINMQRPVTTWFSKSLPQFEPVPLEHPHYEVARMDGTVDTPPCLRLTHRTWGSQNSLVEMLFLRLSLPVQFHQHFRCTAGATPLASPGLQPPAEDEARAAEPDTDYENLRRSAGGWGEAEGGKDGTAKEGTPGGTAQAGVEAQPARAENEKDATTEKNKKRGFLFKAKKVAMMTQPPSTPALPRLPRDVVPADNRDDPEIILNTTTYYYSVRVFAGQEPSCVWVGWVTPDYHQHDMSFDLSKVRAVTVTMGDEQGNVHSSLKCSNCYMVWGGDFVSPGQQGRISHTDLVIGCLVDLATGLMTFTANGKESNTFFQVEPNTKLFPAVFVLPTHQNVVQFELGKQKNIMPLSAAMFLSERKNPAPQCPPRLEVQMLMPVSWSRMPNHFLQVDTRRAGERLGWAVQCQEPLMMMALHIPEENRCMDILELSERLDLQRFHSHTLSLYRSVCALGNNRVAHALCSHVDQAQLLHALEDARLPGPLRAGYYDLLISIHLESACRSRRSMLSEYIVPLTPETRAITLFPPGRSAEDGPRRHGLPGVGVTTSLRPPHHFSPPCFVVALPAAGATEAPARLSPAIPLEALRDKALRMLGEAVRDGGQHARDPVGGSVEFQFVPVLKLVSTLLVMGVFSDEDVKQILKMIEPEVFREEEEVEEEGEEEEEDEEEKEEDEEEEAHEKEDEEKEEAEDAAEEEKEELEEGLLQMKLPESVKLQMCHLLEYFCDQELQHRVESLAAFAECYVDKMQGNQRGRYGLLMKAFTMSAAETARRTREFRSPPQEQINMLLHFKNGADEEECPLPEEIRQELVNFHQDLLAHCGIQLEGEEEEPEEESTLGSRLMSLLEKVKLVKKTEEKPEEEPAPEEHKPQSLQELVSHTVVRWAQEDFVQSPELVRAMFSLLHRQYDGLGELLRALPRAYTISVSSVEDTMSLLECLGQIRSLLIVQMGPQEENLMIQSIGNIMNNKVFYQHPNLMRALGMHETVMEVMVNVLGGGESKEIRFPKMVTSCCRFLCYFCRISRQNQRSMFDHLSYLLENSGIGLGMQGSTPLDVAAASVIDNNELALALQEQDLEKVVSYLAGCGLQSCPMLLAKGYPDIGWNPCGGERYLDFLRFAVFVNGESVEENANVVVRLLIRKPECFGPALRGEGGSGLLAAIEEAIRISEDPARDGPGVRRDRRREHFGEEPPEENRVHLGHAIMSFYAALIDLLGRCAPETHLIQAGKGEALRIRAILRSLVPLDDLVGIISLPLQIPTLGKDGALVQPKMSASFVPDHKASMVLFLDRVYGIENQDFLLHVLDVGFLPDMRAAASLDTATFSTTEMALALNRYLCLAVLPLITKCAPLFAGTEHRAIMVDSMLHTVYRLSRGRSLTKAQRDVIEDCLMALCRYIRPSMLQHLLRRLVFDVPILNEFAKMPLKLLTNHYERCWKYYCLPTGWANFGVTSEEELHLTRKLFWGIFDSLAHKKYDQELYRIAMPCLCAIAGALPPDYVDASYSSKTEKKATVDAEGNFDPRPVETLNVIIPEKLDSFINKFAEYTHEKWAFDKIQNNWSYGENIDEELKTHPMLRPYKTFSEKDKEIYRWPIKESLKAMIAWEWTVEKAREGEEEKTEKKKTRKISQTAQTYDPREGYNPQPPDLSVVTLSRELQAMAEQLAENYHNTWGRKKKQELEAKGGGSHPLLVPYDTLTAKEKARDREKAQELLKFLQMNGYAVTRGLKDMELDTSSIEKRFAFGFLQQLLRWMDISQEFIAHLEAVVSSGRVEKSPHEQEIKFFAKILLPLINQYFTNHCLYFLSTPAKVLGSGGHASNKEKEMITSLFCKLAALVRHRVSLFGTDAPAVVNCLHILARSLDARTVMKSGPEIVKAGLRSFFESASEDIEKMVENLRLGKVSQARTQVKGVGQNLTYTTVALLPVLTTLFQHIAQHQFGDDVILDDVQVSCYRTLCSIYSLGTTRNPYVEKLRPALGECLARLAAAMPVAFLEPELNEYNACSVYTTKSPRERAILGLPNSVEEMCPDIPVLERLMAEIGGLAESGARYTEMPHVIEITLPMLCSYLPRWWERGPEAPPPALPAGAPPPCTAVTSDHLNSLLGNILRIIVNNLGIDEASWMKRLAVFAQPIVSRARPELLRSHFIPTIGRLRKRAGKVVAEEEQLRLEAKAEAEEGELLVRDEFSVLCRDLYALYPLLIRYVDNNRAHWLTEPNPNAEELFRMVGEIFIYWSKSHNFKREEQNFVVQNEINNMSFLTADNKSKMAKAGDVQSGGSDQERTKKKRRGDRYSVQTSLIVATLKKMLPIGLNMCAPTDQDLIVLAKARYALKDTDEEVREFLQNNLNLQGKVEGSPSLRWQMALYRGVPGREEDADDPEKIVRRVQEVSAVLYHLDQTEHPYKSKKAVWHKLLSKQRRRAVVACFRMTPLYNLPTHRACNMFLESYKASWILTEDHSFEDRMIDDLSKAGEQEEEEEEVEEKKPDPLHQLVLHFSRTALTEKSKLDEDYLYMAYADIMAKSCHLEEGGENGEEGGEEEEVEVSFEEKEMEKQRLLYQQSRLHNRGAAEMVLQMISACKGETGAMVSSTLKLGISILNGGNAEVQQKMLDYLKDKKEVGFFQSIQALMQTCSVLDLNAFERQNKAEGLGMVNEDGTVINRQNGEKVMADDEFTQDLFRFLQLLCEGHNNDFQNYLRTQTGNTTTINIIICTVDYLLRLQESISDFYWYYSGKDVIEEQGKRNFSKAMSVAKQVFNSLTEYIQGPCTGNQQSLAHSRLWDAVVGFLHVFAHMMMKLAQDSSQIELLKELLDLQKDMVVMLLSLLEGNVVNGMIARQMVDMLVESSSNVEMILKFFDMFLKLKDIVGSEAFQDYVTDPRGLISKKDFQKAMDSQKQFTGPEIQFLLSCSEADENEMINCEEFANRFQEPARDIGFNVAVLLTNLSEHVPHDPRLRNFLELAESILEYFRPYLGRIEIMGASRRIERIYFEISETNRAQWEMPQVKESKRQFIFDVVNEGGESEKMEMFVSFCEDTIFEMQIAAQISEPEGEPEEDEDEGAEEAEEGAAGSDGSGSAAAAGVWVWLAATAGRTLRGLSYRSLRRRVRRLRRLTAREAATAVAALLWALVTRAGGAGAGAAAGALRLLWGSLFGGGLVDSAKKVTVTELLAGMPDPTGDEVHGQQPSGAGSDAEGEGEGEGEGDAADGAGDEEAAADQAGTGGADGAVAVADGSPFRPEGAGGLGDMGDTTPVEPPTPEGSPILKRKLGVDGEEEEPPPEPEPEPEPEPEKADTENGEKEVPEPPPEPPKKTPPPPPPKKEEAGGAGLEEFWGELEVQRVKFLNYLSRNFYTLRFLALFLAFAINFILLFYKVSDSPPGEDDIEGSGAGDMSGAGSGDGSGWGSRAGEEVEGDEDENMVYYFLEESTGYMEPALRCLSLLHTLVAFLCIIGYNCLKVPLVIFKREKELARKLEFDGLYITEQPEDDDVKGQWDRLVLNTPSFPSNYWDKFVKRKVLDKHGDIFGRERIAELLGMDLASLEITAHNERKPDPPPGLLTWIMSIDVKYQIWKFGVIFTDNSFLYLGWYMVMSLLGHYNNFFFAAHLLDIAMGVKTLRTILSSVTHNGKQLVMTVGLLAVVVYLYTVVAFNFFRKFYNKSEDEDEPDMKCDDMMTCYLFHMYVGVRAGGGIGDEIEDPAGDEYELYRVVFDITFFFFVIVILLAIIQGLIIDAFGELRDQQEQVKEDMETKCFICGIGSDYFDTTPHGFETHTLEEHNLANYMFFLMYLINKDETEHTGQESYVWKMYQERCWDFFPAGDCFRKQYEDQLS
T2 sequence (E9PZQ0 whole entry W4792A): as the sequence (E9PZQ0 whole entry) above, with W4792A counted along it

For the compound `CCC(C)(C)C(=O)O[C@H]1C[C@@H](C)C=C2C=C[C@H](C)[C@H](CC[C@@H](O)C[C@@H](O)CC(=O)O)[C@H]21` [simvastatin acid], the figures for the Kd (in assay [1]; at RyR1 BSM1 mutant) were 0.69 µM and about 7.1 µM, respectively.

The values are drawn from paper PMC12700559, “Structural basis for simvastatin-induced skeletal muscle weakness associated with type 1 ryanodine receptor T4709M mutation” (The Journal of Clinical Investigation, 2025).
